Entries after “also recorded” stand apart in the source; their conditions may differ.
Legend:
MOLM-13 cells = assay: Cellular proliferation assay (MTS), MOLM-13; assay type: cell-based; settings: Homo sapiens, AML-FLT3-ITD (heterozygous), 72 h, mean±s.d. of three experiments
Description: (§1) MOLM-13 cells were purchased from the Deutsche Sammlung von Microorganismen und Zellkulturen GmbH (Braunschweig, Germany). RS4;11, MV4-11, U937, and K562 cell lines were obtained from the American Type Culture Collection (ATCC, Manassas, VA, USA). […] HEK293T- and FLT3-transfected HEK293T cells were cultured in DMEM (Invitrogen) medium with 10% FBS.
(§2) Proliferation assays were performed by seeding 10 000 cells per well in a 96-well culture plate. […] Cell viability was quantitated using the MTS method (Promega) according to the manufacturer's recommended protocol. The results were determined by measuring absorbance at 490 nm using a plate reader (Victor2; Perkin-Elmer).

MV4-11 cells = assay: Cellular proliferation assay (MTS), MV4-11; assay type: cell-based; settings: Homo sapiens, AML-FLT3-ITD (homozygous), 72 h, mean±s.d. of three experiments
Description: as §1, §2

U937 cells = assay: Cellular proliferation assay (MTS), U937; assay type: cell-based; settings: Homo sapiens, U-937, AML-FLT3-negative, 72 h, mean±s.d. of three experiments
Description: as §1, §2

RS4;11 cells = assay: Cellular proliferation assay (MTS), RS4;11; assay type: cell-based; settings: Homo sapiens, RS4-11, 72 h, read-out: Proliferation GI50, RS4;11
Description: as §1, §2

K562 cells = assay: Cellular proliferation assay (MTS), K562; assay type: cell-based; settings: Homo sapiens, CML-Bcr-Abl FLT3-negative, 72 h, mean±s.d. of three experiments
Description: as §1, §2

FLT3-WT = tested on: FLT3-WT; set-up: method as in Shankar et al (2007); settings: previously reported; ref Shankar et al (2007); read-out: IC50 for inhibition of FLT3-WT; cited from earlier work
[1] = tested on: MOLM-13 xenograft tumours; set-up: method as in Shankar et al, 2007; settings: ref Shankar et al, 2007; cited from earlier work

SMILES: Cc1ccc(F)c(NC(=O)Nc2ccc(-c3cccc4[nH]nc(N)c34)cc2)c1 [ABT-869]
- GI50 (MOLM-13 cells): 38 ± 14 nM
- GI50 (MV4-11 cells): 82 ± 17 nM
- GI50 (U937 cells): > 18000 nM
- GI50 (RS4;11 cells): 9200 ± 2700 nM
- GI50 (K562 cells): > 20000 nM
- IC50 (FLT3-WT): 4 nM
- Effect on MOLM-13 xenograft tumours [1]: unable to shrink the MOLM-13 xenograft tumours; also recorded: not able to produce regressions of tumours

From paper PMC3273346, “BPR1J-097, a novel FLT3 kinase inhibitor, exerts potent inhibitory activity against AML” (British Journal of Cancer, 2011)
